Test system: MV-4-11 cells
Assay: Gene expression microarray analysis (Affymetrix PrimeView) and GSEA
Format: cell-based, human
Design: RFU PODN (11730768_x_at) / Fold change /veh PODN (11730768_x_at) / RFU LINC00158 (11744669_a_at) / Fold change /veh LINC00158 (11744669_a_at) / RFU DUSP10 (11751237_a_at) / Fold change /veh DUSP10 (11751237_a_at) / RFU ID3 (11757404_x_at) / Fold change /veh ID3 (11757404_x_at) / RFU PLEKHG5 (11737974_s_at) / Fold change /veh PLEKHG5 (11737974_s_at) / RFU LRRC4B (11730491_at) / Fold change /veh LRRC4B (11730491_at) / RFU GIMAP4 (11747438_a_at) / Fold change /veh GIMAP4 (11747438_a_at) / RFU KRT8 (11758183_x_at) / Fold change /veh KRT8 (11758183_x_at) / RFU CNN1 (11734310_a_at) / Fold change /veh CNN1 (11734310_a_at) / RFU VPS37D (11726825_at) / Fold change /veh VPS37D (11726825_at) / RFU C10orf10 (11716522_x_at) / Fold change /veh C10orf10 (11716522_x_at) / RFU KIR2DL2 /// KIR2DL4 /// KIR2DL5A /// KIR2DL5B /// KIR2DS1 /// KIR2DS2 /// KIR2DS3 /// KIR2DS4 /// KIR3DL3 /// KIR3DL3 /// KIR3DS1 (11738374_at) / Fold change /veh KIR2DL2 /// KIR2DL4 /// KIR2DL5A /// KIR2DL5B /// KIR2DS1 /// KIR2DS2 /// KIR2DS3 /// KIR2DS4 /// KIR3DL3 /// KIR3DL3 /// KIR3DS1 (11738374_at) / RFU C1QL1 (11718748_at) / Fold change /veh C1QL1 (11718748_at) / RFU TMPRSS4 (11747572_a_at) / Fold change /veh TMPRSS4 (11747572_a_at) / RFU HAMP (11756126_x_at) / Fold change /veh HAMP (11756126_x_at) / RFU RNFT2 (11725882_a_at) / Fold change /veh RNFT2 (11725882_a_at) / RFU NR4A2 (11747474_a_at) / Fold change /veh NR4A2 (11747474_a_at) / RFU ABCC12 (11746883_a_at) / Fold change /veh ABCC12 (11746883_a_at) / RFU TMEM136 (11760407_x_at) / Fold change /veh TMEM136 (11760407_x_at) / RFU CLDN22 /// WWC2 (11732394_at) / Fold change /veh CLDN22 /// WWC2 (11732394_at) / RFU HLA-DPB1 (11760878_x_at) / Fold change /veh HLA-DPB1 (11760878_x_at) / RFU SPINT1 (11716480_a_at) / Fold change /veh SPINT1 (11716480_a_at) / RFU GAP43 (11754022_s_at) / Fold change /veh GAP43 (11754022_s_at) / RFU A4GNT (11735810_at) / Fold change /veh A4GNT (11735810_at) / RFU PRB3 (11715151_x_at) / Fold change /veh PRB3 (11715151_x_at) / RFU TUBB4B (11761932_at) / Fold change /veh TUBB4B (11761932_at) / RFU CAPN14 (11732068_a_at) / Fold change /veh CAPN14 (11732068_a_at) / RFU TMCC2 (11721928_a_at) / Fold change /veh TMCC2 (11721928_a_at) / RFU IRGQ (11745062_a_at) / Fold change /veh IRGQ (11745062_a_at) / RFU FAM174B (11720279_a_at) / Fold change /veh FAM174B (11720279_a_at) / RFU TMPRSS4 (11748680_a_at) / Fold change /veh TMPRSS4 (11748680_a_at) / RFU FAM212B (11763350_a_at) / Fold change /veh FAM212B (11763350_a_at) / RFU PLEKHG5 (11743358_a_at) / Fold change /veh PLEKHG5 (11743358_a_at) / RFU ZSCAN30 (11745921_a_at) / Fold change /veh ZSCAN30 (11745921_a_at) / RFU CMKLR1 (11741424_a_at) / Fold change /veh CMKLR1 (11741424_a_at) / RFU LOC101060620 /// MAPK8IP1 (11723275_at) / Fold change /veh LOC101060620 /// MAPK8IP1 (11723275_at) / RFU SPTSSB (11747773_x_at) / Fold change /veh SPTSSB (11747773_x_at) / RFU PRSS12 (11739890_at) / Fold change /veh PRSS12 (11739890_at) / RFU BIN1 (11741810_x_at) / Fold change /veh BIN1 (11741810_x_at) / RFU WNT11 (11732464_a_at) / Fold change /veh WNT11 (11732464_a_at) / RFU C10orf10 (11716521_a_at) / Fold change /veh C10orf10 (11716521_a_at) / RFU C5orf56 (11738089_at) / Fold change /veh C5orf56 (11738089_at) / RFU CYB561 (11721691_x_at) / Fold change /veh CYB561 (11721691_x_at) / RFU ANKRD19P (11752326_a_at) / Fold change /veh ANKRD19P (11752326_a_at) / RFU OR2T12 /// OR2T33 /// OR2T8 (11738714_s_at) / Fold change /veh OR2T12 /// OR2T33 /// OR2T8 (11738714_s_at) / RFU VCAN (11748164_a_at) / Fold change /veh VCAN (11748164_a_at) / RFU JSRP1 (11732532_at) / Fold change /veh JSRP1 (11732532_at) / RFU KRTAP10-11 (11738290_x_at) / Fold change /veh KRTAP10-11 (11738290_x_at) / RFU MYO3A (11730013_a_at) / Fold change /veh MYO3A (11730013_a_at) / RFU EBF3 (11725865_a_at) / Fold change /veh EBF3 (11725865_a_at) / RFU CAMK2N1 (11719241_x_at) / Fold change /veh CAMK2N1 (11719241_x_at) / RFU C5orf56 (11738088_a_at) / Fold change /veh C5orf56 (11738088_a_at) / RFU OLFML3 (11715873_a_at) / Fold change /veh OLFML3 (11715873_a_at) / RFU LOC100653217 /// NTM (11731650_a_at) / Fold change /veh LOC100653217 /// NTM (11731650_a_at) / RFU MAPK11 (11762145_a_at) / Fold change /veh MAPK11 (11762145_a_at) / RFU FIZ1 (11724087_x_at) / Fold change /veh FIZ1 (11724087_x_at) / RFU OASL (11726364_x_at) / Fold change /veh OASL (11726364_x_at) / RFU SOX15 (11748057_x_at) / Fold change /veh SOX15 (11748057_x_at) / RFU CD79A (11719716_a_at) / Fold change /veh CD79A (11719716_a_at) / RFU HIST1H1D (11736915_at) / Fold change /veh HIST1H1D (11736915_at) / RFU CASKIN2 (11723855_a_at) / Fold change /veh CASKIN2 (11723855_a_at) / RFU LOC730098 (11760151_x_at) / Fold change /veh LOC730098 (11760151_x_at) / RFU OR4N2 (11742367_at) / Fold change /veh OR4N2 (11742367_at) / RFU PRRT2 (11749266_a_at) / Fold change /veh PRRT2 (11749266_a_at) / RFU SNX32 (11753110_a_at) / Fold change /veh SNX32 (11753110_a_at) / RFU CDHR5 (11726645_a_at) / Fold change /veh CDHR5 (11726645_a_at) / RFU RCAN1 (11760418_a_at) / Fold change /veh RCAN1 (11760418_a_at) / RFU FAM167A (11723789_a_at) / Fold change /veh FAM167A (11723789_a_at) / RFU FAM26E (11764081_at) / Fold change /veh FAM26E (11764081_at) / RFU ISYNA1 (11749810_s_at) / Fold change /veh ISYNA1 (11749810_s_at) / RFU ACY1 (11761880_at) / Fold change /veh ACY1 (11761880_at) / RFU 11764098_at / Fold change /veh 11764098_at / RFU SAMD14 (11745864_x_at) / Fold change /veh SAMD14 (11745864_x_at) / RFU NPB (11741838_a_at) / Fold change /veh NPB (11741838_a_at) / RFU TMPRSS6 (11731388_a_at) / Fold change /veh TMPRSS6 (11731388_a_at) / RFU KRTAP10-2 (11738614_at) / Fold change /veh KRTAP10-2 (11738614_at) / RFU ARHGAP8 /// PRR5-ARHGAP8 (11727945_x_at) / Fold change /veh ARHGAP8 /// PRR5-ARHGAP8 (11727945_x_at) / RFU KRTAP5-7 /// NADSYN1 (11734609_at) / Fold change /veh KRTAP5-7 /// NADSYN1 (11734609_at) / RFU RASL12 (11751679_a_at) / Fold change /veh RASL12 (11751679_a_at) / RFU CDKN2B (11736163_a_at) / Fold change /veh CDKN2B (11736163_a_at) / RFU PRF1 (11729649_at) / Fold change /veh PRF1 (11729649_at) / RFU, ZNF638 /// ZNF638-IT1 / Fold change vs veh, ZNF638 /// ZNF638-IT1 / RFU, PANK3 / Fold change vs veh, PANK3 / RFU, SH3YL1 / Fold change vs veh, SH3YL1 / RFU, ZEB2 / Fold change vs veh, ZEB2 / RFU, NRIP1 / Fold change vs veh, NRIP1 / RFU, PTTG1IP / Fold change vs veh, PTTG1IP / RFU, CAPN2 / Fold change vs veh, CAPN2 / RFU, MED14 / Fold change vs veh, MED14 / RFU, SNORA58 / Fold change vs veh, SNORA58 / RFU, C1orf63 / Fold change vs veh, C1orf63 / RFU, LRRFIP1 / Fold change vs veh, LRRFIP1 / RFU, NDUFAF7 / Fold change vs veh, NDUFAF7 / RFU, SLC12A2 / Fold change vs veh, SLC12A2 / RFU, IBTK / Fold change vs veh, IBTK / RFU, ESF1 / Fold change vs veh, ESF1 / Fold change vs veh, TMEM50B / RFU, TAOK1 / Fold change vs veh, TAOK1 / RFU, ACBD3 / Fold change vs veh, ACBD3 / RFU, TMA16 / Fold change vs veh, TMA16 / RFU, RWDD3 / Fold change vs veh, RWDD3 / RFU, BCAT1 / Fold change vs veh, BCAT1 / RFU, EDEM3 / Fold change vs veh, EDEM3 / RFU, TMEM33 / Fold change vs veh, TMEM33 / RFU, WDR75 / Fold change vs veh, WDR75 / RFU, AHCTF1 / Fold change vs veh, AHCTF1 / RFU, TFRC / Fold change vs veh, TFRC / RFU, ZDHHC17 / Fold change vs veh, ZDHHC17 / RFU, NOM1 / Fold change vs veh, NOM1 / RFU, ARL8B / Fold change vs veh, ARL8B / RFU, ZBTB11 / Fold change vs veh, ZBTB11 / RFU, TAMM41 / Fold change vs veh, TAMM41 / RFU, KIAA1704 /// LOC100996395 / Fold change vs veh, KIAA1704 /// LOC100996395 / RFU, ING1 / Fold change vs veh, ING1 / RFU, TRMT61B / Fold change vs veh, TRMT61B / RFU, FUBP3 / Fold change vs veh, FUBP3 / RFU, TP53 / Fold change vs veh, TP53 / RFU, TNKS2 / Fold change vs veh, TNKS2 / RFU, ZFP14 / Fold change vs veh, ZFP14 / RFU, ACTR2 / Fold change vs veh, ACTR2 / RFU, PPP3R1 / Fold change vs veh, PPP3R1 / RFU, PIK3R1 / Fold change vs veh, PIK3R1 / RFU, HNRNPA1 / Fold change vs veh, HNRNPA1 / RFU, RNF170 / Fold change vs veh, RNF170 / RFU, ZNF28 / Fold change vs veh, ZNF28 / RFU, RNGTT / Fold change vs veh, RNGTT / RFU, OGT / Fold change vs veh, OGT / RFU, BRD1 / Fold change vs veh, BRD1 / RFU, MARS / Fold change vs veh, MARS / RFU, ZNF655 / Fold change vs veh, ZNF655 / RFU, FAHD1 / Fold change vs veh, FAHD1 / RFU, BDP1 / Fold change vs veh, BDP1 / RFU, LRRCC1 / Fold change vs veh, LRRCC1 / RFU, ARID1A / Fold change vs veh, ARID1A / RFU, ZNF146 / Fold change vs veh, ZNF146 / RFU, ZNF330 / Fold change vs veh, ZNF330 / RFU, GPN3 / Fold change vs veh, GPN3 / RFU, C9orf123 / Fold change vs veh, C9orf123 / RFU, N4BP2L2 / Fold change vs veh, N4BP2L2 / RFU, ARFIP1 / Fold change vs veh, ARFIP1 / RFU, FAM179B / Fold change vs veh, FAM179B / RFU, BCL10 / Fold change vs veh, BCL10 / RFU, UHRF1BP1L / Fold change vs veh, UHRF1BP1L / RFU, BET1 / Fold change vs veh, BET1 / RFU, CNOT2 / Fold change vs veh, CNOT2 / RFU, ZNF268 / Fold change vs veh, ZNF268 / Fold change vs veh, ZNF507 / RFU, DGCR2 / Fold change vs veh, DGCR2 / RFU, WDSUB1 / Fold change vs veh, WDSUB1 / Fold change vs veh, HSP90B1 /// MIR3652 / RFU, ADSS / Fold change vs veh, ADSS / RFU, GK / Fold change vs veh, GK / RFU, ZNF148 / Fold change vs veh, ZNF148 / RFU, TAF9 / Fold change vs veh, TAF9 / RFU, SLC1A5 / Fold change vs veh, SLC1A5 / RFU, SLMO2 / Fold change vs veh, SLMO2 / RFU, ABCC4 / Fold change vs veh, ABCC4 / RFU, LOC101060439 /// RAP1B / Fold change vs veh, LOC101060439 /// RAP1B / RFU, RFX7 / Fold change vs veh, RFX7 / RFU, GTPBP10 / Fold change vs veh, GTPBP10 / RFU, CNEP1R1 / Fold change vs veh, CNEP1R1 / RFU, BIVM-ERCC5 /// ERCC5 / Fold change vs veh, BIVM-ERCC5 /// ERCC5 / RFU, ILF3 / Fold change vs veh, ILF3 / RFU 11762660_at / Fold change /veh 11762660_at / RFU VCAN (11757783_s_at) / Fold change /veh VCAN (11757783_s_at) / RFU DDX43 (11728927_at) / Fold change /veh DDX43 (11728927_at) / RFU KRT8 (11758188_x_at) / Fold change /veh KRT8 (11758188_x_at) / RFU NKD1 (11759106_at) / Fold change /veh NKD1 (11759106_at) / RFU SRD5A1 (11742802_a_at) / Fold change /veh SRD5A1 (11742802_a_at) / RFU TPSAB1 /// TPSB2 (11721975_s_at) / Fold change /veh TPSAB1 /// TPSB2 (11721975_s_at) / RFU GSTM3 (11746129_a_at) / Fold change /veh GSTM3 (11746129_a_at) / RFU IL23R (11737362_x_at) / Fold change /veh IL23R (11737362_x_at) / RFU TMEM51 (11727254_a_at) / Fold change /veh TMEM51 (11727254_a_at) / RFU PIWIL2 (11732686_x_at) / Fold change /veh PIWIL2 (11732686_x_at) / RFU ORM1 (11744905_x_at) / Fold change /veh ORM1 (11744905_x_at) / RFU CCDC152 (11743942_at) / Fold change /veh CCDC152 (11743942_at) / RFU ECM1 (11717891_a_at) / Fold change /veh ECM1 (11717891_a_at) / RFU IL23R (11748794_a_at) / Fold change /veh IL23R (11748794_a_at) / RFU TNFAIP8L3 (11732012_x_at) / Fold change /veh TNFAIP8L3 (11732012_x_at) / RFU MBOAT4 (11741988_at) / Fold change /veh MBOAT4 (11741988_at) / RFU 11764193_at / Fold change /veh 11764193_at / RFU TMEM53 (11763286_at) / Fold change /veh TMEM53 (11763286_at) / RFU MAGEB2 (11727129_at) / Fold change /veh MAGEB2 (11727129_at) / RFU TMEM200A (11744735_a_at) / Fold change /veh TMEM200A (11744735_a_at) / RFU CCDC152 (11751479_a_at) / Fold change /veh CCDC152 (11751479_a_at) / RFU FAM211A (11726209_a_at) / Fold change /veh FAM211A (11726209_a_at) / RFU RGS16 (11746705_a_at) / Fold change /veh RGS16 (11746705_a_at) / RFU VCAN (11755009_s_at) / Fold change /veh VCAN (11755009_s_at) / RFU RHOB (11743442_s_at) / Fold change /veh RHOB (11743442_s_at) / RFU RGS16 (11720943_a_at) / Fold change /veh RGS16 (11720943_a_at) / RFU RGS16 (11720944_at) / Fold change /veh RGS16 (11720944_at) / RFU, VPS4B / Fold change vs veh, VPS4B / RFU, CREB1 / Fold change vs veh, CREB1 / RFU, DNAJC13 / Fold change vs veh, DNAJC13 / RFU, GNAQ / Fold change vs veh, GNAQ / RFU, CDK5R1 / Fold change vs veh, CDK5R1 / RFU, ZRANB3 / Fold change vs veh, ZRANB3 / RFU, CUL4A / Fold change vs veh, CUL4A / RFU, CCNY / Fold change vs veh, CCNY / RFU, UFL1 / Fold change vs veh, UFL1 / RFU, COG3 / Fold change vs veh, COG3 / RFU, DIAPH2 / Fold change vs veh, DIAPH2 / RFU, SKA2 / Fold change vs veh, SKA2 / RFU, AFF3 / Fold change vs veh, AFF3 / RFU, LMF1 / Fold change vs veh, LMF1 / RFU, IPO11 / Fold change vs veh, IPO11 / RFU, DFFB / Fold change vs veh, DFFB / RFU, FOXP1 / Fold change vs veh, FOXP1 / RFU, CARD8 / Fold change vs veh, CARD8 / RFU, STRN3 / Fold change vs veh, STRN3 / RFU, ADK / Fold change vs veh, ADK / RFU, RASSF2 / Fold change vs veh, RASSF2 / RFU, WIPF1 / Fold change vs veh, WIPF1 / RFU, LARP1B / Fold change vs veh, LARP1B / RFU, RASA1 / Fold change vs veh, RASA1 / RFU, RB1 / Fold change vs veh, RB1 / RFU, PPFIA1 / Fold change vs veh, PPFIA1 / RFU, MAT2A / Fold change vs veh, MAT2A / RFU, CCT5 / Fold change vs veh, CCT5 / RFU, WDR92 / Fold change vs veh, WDR92 / RFU, CUX1 / Fold change vs veh, CUX1 / RFU, TTC7A / Fold change vs veh, TTC7A / RFU, TMEM135 / Fold change vs veh, TMEM135 / RFU, DEPTOR / Fold change vs veh, DEPTOR / RFU, CPM / Fold change vs veh, CPM / RFU, DNAJB6 / Fold change vs veh, DNAJB6 / RFU, CACNA2D3 / Fold change vs veh, CACNA2D3 / RFU, DTX4 / Fold change vs veh, DTX4 / RFU, TFCP2 / Fold change vs veh, TFCP2 / RFU, GMCL1 /// GMCL1P1 / Fold change vs veh, GMCL1 /// GMCL1P1 / RFU, AEBP2 / Fold change vs veh, AEBP2 / RFU, SNHG1 /// SNORD22 /// SNORD25 /// SNORD26 /// SNORD27 /// SNORD28 /// SNORD29 /// SNORD31 / Fold change vs veh, SNHG1 /// SNORD22 /// SNORD25 /// SNORD26 /// SNORD27 /// SNORD28 /// SNORD29 /// SNORD31 / Fold change (Aza/veh), C12orf56 (ProbeSet 11735607_a_at) / Fold change (ACY-1035/veh), C12orf56 (ProbeSet 11735607_a_at) / Fold change (Aza/veh), FGFR1OP (ProbeSet 11751329_s_at) / Fold change (ACY-1035/veh), FGFR1OP (ProbeSet 11751329_s_at) / Fold change (Aza/veh), VPS36 (ProbeSet 11739960_a_at) / Fold change (ACY-1035/veh), VPS36 (ProbeSet 11739960_a_at) / RFU SYPL1 (11715823_x_at) / Fold change /veh SYPL1 (11715823_x_at) / RFU IGFBP7 (11715501_s_at) / Fold change /veh IGFBP7 (11715501_s_at) / RFU REEP3 (11722064_at) / Fold change /veh REEP3 (11722064_at) / RFU IGLL1 (11728026_x_at) / Fold change /veh IGLL1 (11728026_x_at): dose or concentration left out as unconfirmed
Conditions: ProbeSet 11749551_a_at; LIST B

## Nc1ccc(-c2cccs2)cc1NC(=O)c1ccc2c(c1)cc(C1CC1)n2CCN1CCOCC1 [ACY-1035]
  RFU, RNGTT: 53.54 RFU

From PMC5218480 (PLoS ONE, 2017)
